One series relates to HaCaT. Kind of series: Cytotoxicity against human HaCaT cells incubated for 72 hrs by MTT assay. In kind it is functional, cell-based. (Formazan colour is commonly taken as a measure of viable cells.)
The test system of series [1] is PANC-1. Kind of series: Cytotoxicity against human PANC1 cells incubated for 72 hrs by MTT assay. In kind it is functional, cell-based. As to conditions: PANC-1, 72 h.
A short description of series [2]: Antiproliferative activity against human KB-8511 cells incubated for 96 hrs by spectrophotometric method. In kind it is functional, cell-based. As to conditions: KB-ChR-8-5-11, 96 h.
For another series, the species on record is Bos taurus. Kind of series: Inhibition of bovine brain tubulin polymerization preincubated for 15 mins followed by GTP addition and measured for 30 mins by spectrophotometric method.
The test system of series [3] is SF-268. Kind of series: Cytotoxicity against human SF-268 cells by calcein AM reagent based fluorescence method. In kind it is functional, cell-based.
In series [4] the test system is SF-268. Nature of the series: Cytotoxicity against human SF-268 cells by cell titer-glow assay. In kind it is functional, cell-based.
The subject of series [5] is HCT-116. Nature of the series: Cytotoxicity against human HCT-116 cells by calcein AM reagent based fluorescence method. In kind it is functional, cell-based.
Series [6] deals with HCT-116. Nature of the series: Cytotoxicity against human HCT-116 cells by cell titer-glow assay. In kind it is functional, cell-based. (In general: ATP-based viability assays read luminescence as a measure of living cells.)
The nature of series [7]: Inhibition of calf brain tubulin by turbidimetry. Also noted: species or system Bos taurus.
For the next series, the system named is HeLa. Nature of the series: Cytotoxicity against human HeLa cells after 24 to 72 hrs by Cell Titer Blue assay. In kind it is cell-based. Background: Alamar Blue is a resazurin reagent that responds to reducing activity.
In series [8] the target is T1, carboxylesterase 1 (CES1) (Homo sapiens, UniProt P23141).
T1 sequence (P23141 whole entry): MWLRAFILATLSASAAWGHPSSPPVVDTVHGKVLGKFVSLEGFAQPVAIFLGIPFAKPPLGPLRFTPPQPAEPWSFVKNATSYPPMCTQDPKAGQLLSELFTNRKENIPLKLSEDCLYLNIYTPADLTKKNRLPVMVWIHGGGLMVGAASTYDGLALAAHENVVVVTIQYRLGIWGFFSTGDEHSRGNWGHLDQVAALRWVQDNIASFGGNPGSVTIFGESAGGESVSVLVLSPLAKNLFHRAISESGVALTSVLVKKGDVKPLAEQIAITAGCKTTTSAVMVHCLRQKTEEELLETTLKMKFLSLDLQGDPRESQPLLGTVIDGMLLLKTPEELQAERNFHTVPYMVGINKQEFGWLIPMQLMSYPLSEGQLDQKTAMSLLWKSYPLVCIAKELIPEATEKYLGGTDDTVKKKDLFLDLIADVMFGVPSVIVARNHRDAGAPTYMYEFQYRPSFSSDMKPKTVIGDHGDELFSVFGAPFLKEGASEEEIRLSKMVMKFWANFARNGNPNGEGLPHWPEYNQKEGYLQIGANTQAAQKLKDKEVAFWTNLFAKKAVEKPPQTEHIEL
Nature of the series: Substrate activity at human carboxylesterase 1 expressed in baculovirus infected Sf9 insect cells assessed as enzyme-catalysed compound cleavage incubated for 2 hrs by HPLC analysis. In kind it is ADME. To be noted: read-out: Activity.

A further series has as its system DU-145. Kind of series: Antiproliferative activity against human DU145 cells incubated for 72 hrs by WST assay. In kind it is functional, cell-based. To be noted: DU-145, 72 h.
In series [9] the test system is PANC-1. Nature of the series: Antiproliferative activity against human PANC1 cells incubated for 72 hrs by WST assay. In kind it is functional, cell-based. As to conditions: PANC-1, 72 h.
The subject of the next series is BJAB. Nature of the series: Cytotoxicity against human BJAB cells. In kind it is functional, cell-based.
The next series has as its system KB 3-1. Nature of the series: Antiproliferative activity against human KB-31 cells incubated for 96 hrs by spectrophotometric method. In kind it is functional, cell-based. As to conditions: KB 3-1, 96 h.
The next series concerns A549. Nature of the series: Cytotoxicity against human A549 cells. In kind it is functional, cell-based.
The next series relates to Bel-7402. Nature of the series: Cytotoxicity against human BEL7402 cells. In kind it is functional, cell-based.
Another series deals with MCF7. Nature of the series: Cytotoxicity against human MCF7 cells. In kind it is functional, cell-based.
The next series relates to A2780. Nature of the series: Cytotoxicity against human A2780 cells. In kind it is functional, cell-based.

pIC50: −log10 of the molar value. Some results are limits rather than exact numbers.

Usually pIC50 stands for the negative decadic logarithm of the IC50, by convention in mol/L. For the compound `CCCCCCCCCCCCCCCC(=O)OCC(COP(=O)([O-])OCC[N+](C)(C)C)OC(=O)CCCCCCCCCc1n[nH]c(CC(=O)OCC(=O)N[C@H]2CCc3cc(OC)c(OC)c(OC)c3-c3ccc(C(=O)OC)cc32)n1` (some centres undefined), the pIC50 in the series on HaCaT and with PANC-1 [1] was 6.40 throughout.

For orientation: inhibition means the percentage by which the read-out fell short of the control. Low readings indicate a response near the control, high ones a response far below the control. Regarding `COc1c(CO)c2c(c(OC)c1OC)-c1ccc(OC)c(=O)cc1[C@@H](NC(C)=O)CC2`, in [2], the negative-log IC50 (pIC50) is below 6.00. This compound registered an inhibition in the series listed under Bos taurus of 100%.

With `COc1cc2c(c(OC)c1OC)-c1ccc(OC)c(=O)cc1[C@@H](NC(=O)CN(OC)C1C[C@@H](O)[C@@H](O)[C@@H](CO)O1)CC2` (some centres undefined), the negative-log IC50 (pIC50) in the series on SF-268 [3], in the series with SF-268 [4], in the series on HCT-116 [5] and in the series on HCT-116 [6] was 6.52 each time.

Compound `COc1ccc2c(c1)N(C(C)=O)CCCc1cc(OC)c(OC)c(OC)c1-2` showed a negative logarithm of the IC50 (pIC50) in [7] of 5.64.

In [7], `COc1ccc2c(c1)/C(=N\O)CCc1cc(OC)c(OC)c(OC)c1-2` gave a negative-log IC50 (pIC50) of 6.48.

Take `COc1cc2c(c(OC)c1OC)-c1cc(NC(=O)c3ccc(CN[C@@H](CC(C)C)C(=O)OC4CCCC4)cc3)ccc1[C@@H](NC(C)=O)CC2`: in the series on HeLa, the pIC50 is 5.83. Moreover, the metabolised at 2 h in series [8] is 33%.

With `COc1cc2c(c(OC)c1OC)-c1ccc(NCCCCCCCC(=O)N[C@@H](CC(C)C)C(=O)OC3CCCC3)c(=O)cc1[C@@H](NC(C)=O)CC2`, the pIC50 with HeLa is 5.31. In [8], the metabolised at 2 h is 76%.

As for `C=C1COc2cc3c(cc21)-c1c(cc(OC)c(OC)c1OC)CC[C@@H]3NC(=O)CO`, the figures for the negative-log IC50 (pIC50) in the series on HaCaT and with PANC-1 [1] were 8.52 and 7.80, respectively.

`COc1cc2c(c(OC)c1OC)-c1ccc(OC)c(=O)cc1[C@@H](NC(=O)CN(OC)C1C[C@H](O)[C@H](O)[C@@H](C)O1)CC2` (some centres undefined): the pIC50 in the series on SF-268 [3], in the series on SF-268 [4], in the series on HCT-116 [5] and in the series on HCT-116 [6] was 6.52 each time.

As to `COc1ccc2c(c1)C(=O)CCc1cc(OC)c(OC)c(OC)c1-2`, the pIC50 in series [7] was 6.37.

Consider `COc1cc2c(c(OC)c1OC)-c1ccc(O)cc1[C@@H](NC(C)=O)CC2` [N-ACETYLCOLCHINOL], for which the pIC50 was 6.14 with DU-145 and 5.36 in the series on PANC-1 [9].

On to `COc1cc2c(c(OC)c1OC)-c1ccc(OC)c(=O)cc1[C@@H](NC(=O)CN(OC)C1O[C@H](C(C)=O)[C@H](O)[C@H](O)[C@H]1O)CC2` (some centres undefined), for which the negative-log IC50 (pIC50) in the series with SF-268 [3], in the series with SF-268 [4], in the series on HCT-116 [5] and with HCT-116 [6] was 6.52 throughout.

On to `COc1cc2c(c(OC)c1OC)-c1ccc(NCCC(O)C(=O)N[C@@H](CC(C)C)C(=O)OC3CCCC3)c(=O)cc1[C@@H](NC(C)=O)CC2` (some centres undefined), for which the pIC50 in the series with HeLa is 6.64. The metabolised at 2 h in series [8] was found to be 13%.

On to `C=C1COc2cc3c(cc21)-c1c(cc(OC)c(OC)c1OC)CC[C@@H]3NC(=O)COC(=O)Cc1nc(CCCCCCCCCC(=O)OC(COC(=O)CCCCCCCCCCCCCCC)COP(=O)([O-])OCC[N+](C)(C)C)n[nH]1` (some centres undefined), for which the negative-log IC50 (pIC50) in the series on HaCaT and in the series on PANC-1 [1] was 6.40 in each case.

As for `COc1cc2c(c(OC)c1OC)-c1ccc(OC)c(=O)cc1[C@@H](n1cc(CCC(=O)Cc3ccc4oc(=O)ccc4c3)nn1)CC2`, the pIC50 in the series with BJAB was 7.22.

As for `CCOC(=O)NCc1c2c(c(OC)c(OC)c1OC)-c1ccc(OC)c(=O)cc1[C@@H](NC(C)=O)CC2`, the pIC50 (in the series with KB 3-1; in [2]) was below 6.00 in each case. This compound also came in with an inhibition in the series listed under Bos taurus of 0%.

`COc1cc2c(c(OC)c1OC)-c1ccc(NCCCCCC(=O)N[C@@H](CC(C)C)C(=O)OC3CCCC3)c(=O)cc1[C@@H](NC(C)=O)CC2`: in the series on HeLa, the pIC50 was 5.34. In series [8], the metabolised at 2 h was 36%.

For the compound `COc1ccc2c(c1)-c1nc(N)ncc1Cc1cc(OC)c(OC)c(OC)c1-2`, in series [7], the negative logarithm of the IC50 (pIC50) was 6.17.

With `COc1cc2c(c(OC)c1OC)-c1ccc(NCCOC(=O)CCC(=O)OCCCCCCO[N+](=O)[O-])c(=O)cc1[C@@H](NC(C)=O)CC2`, the pIC50 in the series on A549 was 7.40; in the series with Bel-7402 it was 7.40; with MCF7, 7.40; in the series on A2780 it was 7.70.

Turning to `COc1cc2c(c(OC)c1OC)-c1ccc(F)cc1C(NC(C)=O)CC2` (centres undefined), the pIC50 with DU-145 is 6.12; in the series on PANC-1 [9], 5.10.

The record behind these values is ChEMBL document CHEMBL4665675 (J Med Chem, 2020).
